Laboratory results reported in ChEMBL document CHEMBL1156294, “Novel inhibitors of basal glucose transport as potential anticancer agents” (2010).

Tests used:
Type in all cases: functional
NCI-H1299 = assay: Inhibition of basal glucose transport in human H1299 cells assessed as inhibition of [3H]2-deoxyglucose uptake at 30 uM after 30 mins by scintillation counting relative to control
HeLa = assay: Inhibition of basal glucose transport in human HeLa cells assessed as inhibition of [3H]2-deoxyglucose uptake at 30 uM after 30 mins by scintillation counting
RKO = assay: Inhibition of basal glucose transport in human RKO cells assessed as inhibition of [3H]2-deoxyglucose uptake at 30 uM after 30 mins by scintillation counting
[1] = Cytotoxicity against human H1299 cells at 30 uM after 48 hrs by MTT assay relative to control; settings: NCI-H1299, 48 h, read-out: GI
MCF7 = assay: Inhibition of basal glucose transport in human MCF7 cells assessed as inhibition of [3H]2-deoxyglucose uptake at 30 uM after 30 mins by scintillation counting

SMILES | inhibition at 30 µM (NCI-H1299) [%] | inhibition at 30 µM (HeLa) [%] | inhibition at 30 µM (RKO) [%] | inhibition of growth at 30 µM [1] [%] | inhibition at 30 µM (MCF7) [%]
COc1cccc(OC(=O)c2cc(O)c(O)c(O)c2)c1OC(=O)c1cc(O)c(O)c(O)c1 | 58.4 | 46.3 | 57.2 | 36 | 33
O=C(Oc1ccc(Cl)cc1OC(=O)c1cc(O)c(O)c(O)c1)c1cc(O)c(O)c(O)c1 | 84.4 | – | – | – | –
O=C(Oc1ccccc1OC(=O)c1ccc(O)cc1)c1ccc(O)cc1 | 57.5 | – | – | – | –
O=C(Oc1cccc(OC(=O)c2cccc(O)c2)c1OC(=O)c1cccc(O)c1)c1cccc(O)c1 | 99.7 | – | – | 59.3 | –
COc1cccc(OC(=O)c2cccc(O)c2)c1OC(=O)c1cccc(O)c1 | 79 | – | – | – | –
O=C(Oc1ccc(Cl)cc1OC(=O)c1ccccc1O)c1ccccc1O | 51.6 | – | – | 26.6 | –
O=C(Oc1ccc(Cl)cc1OC(=O)c1cccc(O)c1)c1cccc(O)c1 | 93.1 | – | – | 44.5 | –
COc1cccc(OC(=O)c2cc(O)cc(O)c2)c1OC(=O)c1cc(O)cc(O)c1 | 69.4 | – | – | – | –
O=C(Oc1cccc(F)c1OC(=O)c1ccccc1O)c1ccccc1O | 51 | – | – | – | –
O=C(Oc1cccc(OC(=O)c2ccc(O)cc2)c1OC(=O)c1ccc(O)cc1)c1ccc(O)cc1 | 88.7 | – | – | 34.8 | –
O=C(Oc1cccc(OC(=O)c2ccc(O)c(O)c2)c1OC(=O)c1ccc(O)c(O)c1)c1ccc(O)c(O)c1 | 94.7 | – | – | 42.2 | –
COc1cccc(OC(=O)c2ccc(O)c(O)c2)c1OC(=O)c1ccc(O)c(O)c1 | 0 | – | – | 32.4 | –
O=C(Oc1cccc(F)c1OC(=O)c1cc(O)c(O)c(O)c1)c1cc(O)c(O)c(O)c1 | 81.1 | – | – | – | –
O=C(Oc1ccccc1OC(=O)c1cc(O)c(O)c(O)c1)c1cc(O)c(O)c(O)c1 | 32.1 | – | – | – | –
COc1cc(C(=O)Oc2cccc(OC)c2OC(=O)c2cc(OC)c(OC)c(OC)c2)cc(OC)c1OC | 33.3 | – | – | 22.2 | –
COc1cc(C(=O)Oc2ccc(Cl)cc2OC(=O)c2cc(OC)c(OC)c(OC)c2)cc(OC)c1OC | 1.7 | – | – | 20.6 | –
COc1cc(C(=O)Oc2cccc(F)c2OC(=O)c2cc(OC)c(OC)c(OC)c2)cc(OC)c1OC | 7.9 | – | – | 19.6 | –

SMILES | inhibition at 30 µM (NCI-H1299) [%] | inhibition at 30 µM (HeLa) [%] | inhibition at 30 µM (RKO) [%] | inhibition of growth at 30 µM [1] [%] | inhibition at 30 µM (MCF7) [%]
O=C(Oc1cccc(F)c1OC(=O)c1ccc(O)cc1)c1ccc(O)cc1 | 92.6 | – | – | 35.9 | –
COc1cccc(C(=O)Oc2cccc(OC(=O)c3cccc(OC)c3)c2OC(=O)c2cccc(OC)c2)c1 | 66.2 | – | – | – | –
COc1cccc(C(=O)Oc2cccc(OC)c2OC(=O)c2cccc(OC)c2)c1 | 32.1 | – | – | 18.3 | –
O=C(Oc1cccc(OC(=O)c2cc(O)cc(O)c2)c1OC(=O)c1cc(O)cc(O)c1)c1cc(O)cc(O)c1 | 98.7 | – | – | 41 | –
O=C(Oc1ccc(Cl)cc1OC(=O)c1cc(O)cc(O)c1)c1cc(O)cc(O)c1 | 95.2 | – | – | 38.8 | –
O=C(Oc1cccc(F)c1OC(=O)c1cc(O)cc(O)c1)c1cc(O)cc(O)c1 | 94 | – | – | 35 | –
O=C(Oc1cccc(OC(=O)c2cc(O)c(O)c(O)c2)c1OC(=O)c1cc(O)c(O)c(O)c1)c1cc(O)c(O)c(O)c1 | 86.1 | 36 | 58.1 | 39.9 | 60.4
COc1cc(C(=O)Oc2cccc(OC(=O)c3cc(OC)c(OC)c(OC)c3)c2OC(=O)c2cc(OC)c(OC)c(OC)c2)cc(OC)c1OC | 41.1 | – | – | – | –
O=C(Oc1ccc(Cl)cc1OC(=O)c1ccc(O)c(O)c1)c1ccc(O)c(O)c1 | 94.4 | – | – | 45.2 | –
O=C(Oc1cccc(F)c1OC(=O)c1ccc(O)c(O)c1)c1ccc(O)c(O)c1 | 88.7 | – | – | 41.5 | –
COc1cccc(OC)c1C(=O)Oc1cccc(OC(=O)c2c(OC)cccc2OC)c1OC(=O)c1c(OC)cccc1OC | 75.8 | – | – | – | –
COc1ccc(C(=O)Oc2cccc(OC(=O)c3ccc(OC)c(OC)c3)c2OC(=O)c2ccc(OC)c(OC)c2)cc1OC | 0 | – | – | 10 | –
O=C(Oc1cccc(OC(=O)c2ccccc2O)c1OC(=O)c1ccccc1O)c1ccccc1O | 74.7 | – | – | – | –
COc1cccc(OC(=O)c2ccccc2O)c1OC(=O)c1ccccc1O | 50.5 | – | – | 18 | –
COc1cccc(OC(=O)c2ccc(O)cc2)c1OC(=O)c1ccc(O)cc1 | 86.5 | – | – | 36.6 | –
O=C(Oc1ccc(Cl)cc1OC(=O)c1ccc(O)cc1)c1ccc(O)cc1 | 79 | – | – | – | –
